Experimental data published in article PMC7830877, “Possibility to Biotransform Anthracyclines by Peroxidases Produced by Bjerkandera adusta CCBAS 930 with Reduction of Geno- and Cytotoxicity and Pro-Oxidative Activity” (Molecules, 2021).
Read-outs that look alike come from different tables or passages of the source.

Key:
[1] = system: B. adusta CCBAS 930; test: Free radical (SOR) content in B. adusta CCBAS 930 cultures (NBT); parameters: species or system Bjerkandera adusta
Procedure: The content of PhC was determined spectrophotometrically at A740nm according to Singleton and Rossi (1965) with a slight modification. SOR levels were estimated based on the detection of superoxide-induced formazan formation from nitrotetrazolium blue (NBT) (A560nm). Untreated medium with DNR or DOX at a concentration of 10 µg/mL was used as control.

[2] = DPPH radical scavenging assay; type: physicochemical; conditions: initial solutions 10 µg/mL
Procedure: Antioxidant activity was measured using the DPPH^• radical scavenging assay according to Brand-Williams et al. (1995). Each 100 μL of post-culture fluids and initial DNR and DOX (10 μg/mL) solutions were mixed with 100 μL of […] DPPH^• solution in 96% ethanol. Following 30 min incubation at room temperature, sample absorbance was measured […]) using 96% ethanol as a blank sample.

[3] = system: V. fischeri; test: Ecotoxicity assay (Microtox); type: cell-based, Vibrio fischeri; conditions: initial media 10 µg/mL or decolorized post-culture fluids
Procedure: The Microtox® (Model 500 Analyzer, London, UK) toxicity assay was used to evaluate the inhibition of luminescence of V. fischeri marine bacteria for untreated medium supplemented with DNR and DOX (10 µg/mL) and post-culture liquids of B. adusta CCBAS 930 according to the manufacturer’s protocol.

[4] = system: BJ fibroblasts; test: Resazurin reduction assay; type: cell-based, human; conditions: BJ cells, medium with initial solution
Procedure: The human skin fibroblasts cell line BJ (ATCC CRL-2522) was obtained from American Type Culture Collection (ATCC, distributors: LGC Standards, Łomianki, Poland). BJ cells were maintained in MEM medium without phenol red supplemented with 10% fetal bovine serum (FBS). Cells were maintained at 37 °C in a humidified atmosphere with 5% CO2. Cells were seeded in 96-well culture plates (Costar, St. Louis, MO, USA) at a density of 5 × 10^3 per well and initially cultured before the experiment for 24 h. […] The resazurin reduction cell viability and metabolism assay was performed according to a previously described method. On the day of analysis, a working solution of 60 µM resazurin was prepared in medium containing 1% FBS. […] Fluorescence was measured with an excitation wavelength of 530 nm and emission 590 nm on a FilterMax F5 Multi-Mode microplate reader (Molecular Devices, Corp., Sunnyvale, CA, USA) for 1 and 2 h after dye addition.

[5] = system: BJ fibroblasts; test: ROS production (H2DCFDA); type: cell-based, human; conditions: BJ cells
Procedure: The human skin fibroblasts cell line BJ (ATCC CRL-2522) was obtained from American Type Culture Collection (ATCC, distributors: LGC Standards, Łomianki, Poland). BJ cells were maintained in MEM medium without phenol red supplemented with 10% fetal bovine serum (FBS). Cells were maintained at 37 °C in a humidified atmosphere with 5% CO2. Cells were seeded in 96-well culture plates (Costar, St. Louis, MO, USA) at a density of 5 × 10^3 per well and initially cultured before the experiment for 24 h. […] The ROS measurement was performed according to a previously described method. […] The cells were incubated in H2DCFDA in serum-free and phenol red-free medium for 45 min before conditioned medium treatment. After 24 and 48 h of incubation of the cells with increasing concentrations of compounds (5% CO2 at 37 °C), the culture medium was replaced with fresh medium to remove extracellular residual DCF and studied compounds to reduce the fluorescence background. Cells treated with 0.3% hydrogen peroxide (H2O2) were used as a positive control (result not shown).

[6] = system: caspase-3 activity in BJ fibroblasts; test: Caspase-3 activity; type: cell-based, human; conditions: BJ cells; 24 h; medium with initial solutions
Procedure: The human skin fibroblasts cell line BJ (ATCC CRL-2522) was obtained from American Type Culture Collection (ATCC, distributors: LGC Standards, Łomianki, Poland). BJ cells were maintained in MEM medium without phenol red supplemented with 10% fetal bovine serum (FBS). Cells were maintained at 37 °C in a humidified atmosphere with 5% CO2. Cells were seeded in 96-well culture plates (Costar, St. Louis, MO, USA) at a density of 5 × 10^3 per well and initially cultured before the experiment for 24 h. […] Caspase-3 activity was assessed according to previous described method Nicholson et al. After 24 or 48 h of treatment with studied media culture plates were frozen in −80 °C and kept until assay. […] The lysates were incubated with substrate Ac-DEVD-pNA for caspase-3 at 37 °C. Cells treated with 1 μM staurosporine were used as a positive control (results not shown). After 30 min, absorbance of the lysates at 405 nm was measured using a microplate reader (FilterMax F5 Multi-Mode microplate reader). The amount of colorimetric product was continuously monitored for 120 min. The data were analyzed using Multi-Mode Analysis software (Molecular Devices, Corp., Sunnyvale, CA, USA).

[7] = system: BJ fibroblasts; test: Calcein AM staining; type: cell-based, human; conditions: BJ cells; 24 and 48 h; parent vs Control 1, metabolite vs parent
Procedure: The human skin fibroblasts cell line BJ (ATCC CRL-2522) was obtained from American Type Culture Collection (ATCC, distributors: LGC Standards, Łomianki, Poland). BJ cells were maintained in MEM medium without phenol red supplemented with 10% fetal bovine serum (FBS). Cells were maintained at 37 °C in a humidified atmosphere with 5% CO2. Cells were seeded in 96-well culture plates (Costar, St. Louis, MO, USA) at a density of 5 × 10^3 per well and initially cultured before the experiment for 24 h.

[8] = system: bacteria; test: Genotoxicity assay (SOS ChromoTest); conditions: before treatment
[9] = parameters: method as in PMID 17867890; conditions: SOS Chromotest, cited from earlier work

| Compound | decrease in the content of free radicals [1] [%] | antioxidant activity (DPPH scavenging) [2] | toxicity units (TU) [3] | decrease in resazurin reduction compared to Control 1 ([4]; 24 h) [%] | decrease in resazurin reduction compared to Control 1 ([4]; 48 h) [%] | ROS production induced compared to Control 1 ([5]; 24 h) [%] | ROS production induced compared to Control 1 ([5]; 48 h) [%] | caspase-3 activity [6] | cell number (calcein AM staining) [7] | CIF (corrected induction factor) ([8]; C 0.15 µg mL^−1) | CIF (corrected induction factor) ([8]; C 0.31 µg mL^−1) | CIF (corrected induction factor) ([8]; C 0.62 µg mL^−1) | CIF (corrected induction factor) ([8]; C 1.25 µg mL^−1) | CIF (corrected induction factor) ([8]; C 2.50 µg mL^−1) | CIF (corrected induction factor) ([8]; C 5 µg mL^−1) | CIF (corrected induction factor) ([8]; C 10 µg mL^−1) | concentration exhibiting genotoxic properties ([9]; with metabolic activation) [ng/mL] | concentration exhibiting genotoxic properties ([9]; without metabolic activation) [ng/mL] |
| --- | --- | --- | --- | --- | --- | --- | --- | --- | --- | --- | --- | --- | --- | --- | --- | --- | --- | --- |
| COc1cccc2c1C(=O)c1c(O)c3c(c(O)c1C2=O)C[C@@](O)(C(C)=O)C[C@@H]3O[C@H]1C[C@H](N)[C@H](O)[C@H](C)O1 [DNR, daunomycin] | 90.30 | did not show any antioxidant activity | 1.79 ± 0.09 | 48.49 | 48.40 | 625.72 | 372.97 | not affected | decrease in cell number | 2.50 | 1.60 | 1.21 | 1.54 | 2.80 | 5.68 | 13.42 | – | – |
| COc1cccc2c1C(=O)c1c(O)c3c(c(O)c1C2=O)C[C@@](O)(C(=O)CO)C[C@@H]3O[C@H]1C[C@H](N)[C@H](O)[C@H](C)O1 [DOX, doxorubicin] | 90.70 | did not show any antioxidant activity | 1.90 ± 0.13 | 50.36 | 40.36 | 680.22 | 457.34 | not affected | decrease in cell number | 2.88 | 1.21 | 1.23 | 2.53 | 3.27 | 3.70 | 9.58 | 98 | 74 |
